Holding throughout (format): in vivo
Test [1] relates to Ipomea hederaceae (IPOHE). Kind of test: Post-emergence biological efficacy, glasshouse pot test. The conditions noted are these: Ipomoea hederacea, 312 h; post-emergence, 1,000 g/ha, evaluated after 13 days (100=total damage; 0=no damage); read-out: Percentage damage caused to weed species, IPOHE. The procedure, abridged:
(§1)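 Plants were sown in standard soil and grown 8 days in a glasshouse (24/16° C. day/night, 14 hours light, 65% humidity), then sprayed post-emergence at 1000 or 250 g/ha from acetone/water (50:50) with 0.5% Tween 20. Damage was scored visually after 13 days (0 = none, 100 = total).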

For test [2], the system named is Solanum nigrum (SOLNI). Described as above. Particulars: 312 h, post-emergence, 1,000 g/ha, evaluated after 13 days (100=total damage; 0=no damage), read-out: Percentage damage caused to weed species, SOLNI. The procedure, abridged: as §1
Test [3] deals with Alopecurus myosuroides (ALOMY). The description is as above. The conditions noted are these: 312 h, post-emergence, 1,000 g/ha, evaluated after 13 days (100=total damage; 0=no damage), read-out: Percentage damage caused to weed species, ALOMY. The procedure, abridged:
as §1

Test [4] deals with Amaranthus retoflexus (AMARE). Described as above. The conditions noted are these: Amaranthus retroflexus, 312 h; post-emergence, 1,000 g/ha, evaluated after 13 days (100=total damage; 0=no damage); read-out: Percentage damage caused to weed species, AMARE. The procedure, abridged:
as §1

Test [5] relates to Echinochloa crus-galli (ECHCG). Described as above. The conditions noted are these: 312 h, post-emergence, 1,000 g/ha, evaluated after 13 days (100=total damage; 0=no damage), read-out: Percentage damage caused to weed species, ECHCG. The procedure, abridged: as §1
Test [6] concerns Setaria faberi (SETFA). The description is as above. Particulars: 312 h, post-emergence, 1,000 g/ha, evaluated after 13 days (100=total damage; 0=no damage), read-out: Percentage damage caused to weed species, SETFA. The method in brief: as §1
Test [7] concerns Ipomea hederaceae (IPOHE). Kind of test: Pre-emergence biological efficacy, glasshouse pot test. The conditions noted are these: Ipomoea hederacea, 312 h; pre-emergence, 1,000 g/ha, evaluated after 13 days (100=total damage; 0=no damage); read-out: Percentage damage IPOHE. The procedure, abridged:
(§2)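 Seeds sown in standard soil in pots, held one day in glasshouse (24/16 °C day/night, 14 h light, 65% humidity), then sprayed with aqueous solution from acetone/water (50:50) formulation with 0.5% Tween 20 at 1000 or 250 g/ha. Damage scored after 13 days (0 = none, 100 = total).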

Test [8] relates to Solanum nigrum (SOLNI). The description is as above. Particulars: 312 h, pre-emergence, 1,000 g/ha, evaluated after 13 days (100=total damage; 0=no damage), read-out: Percentage damage SOLNI. The procedure, abridged: as §2
The test system of test [9] is Alopecurus myosuroides (ALOMY). The description is as above. The conditions noted are these: 312 h, pre-emergence, 1,000 g/ha, evaluated after 13 days (100=total damage; 0=no damage), read-out: Percentage damage ALOMY. The procedure, abridged:
as §2

In test [10] the test system is Amaranthus retoflexus (AMARE). The test is described as above. The conditions noted are these: Amaranthus retroflexus, 312 h; pre-emergence, 1,000 g/ha, evaluated after 13 days (100=total damage; 0=no damage); read-out: Percentage damage AMARE. The method in brief: as §2
For test [11], the system named is Echinochloa crus-galli (ECHCG). The test is described as above. Particulars: 312 h, pre-emergence, 1,000 g/ha, evaluated after 13 days (100=total damage; 0=no damage), read-out: Percentage damage ECHCG. The method in brief: as §2
Test [12] has as its system Setaria faberi (SETFA). The test is described as above. Particulars: 312 h, pre-emergence, 1,000 g/ha, evaluated after 13 days (100=total damage; 0=no damage), read-out: Percentage damage SETFA. The procedure, abridged:
as §2

Regarding `COC(=O)c1nc(C2CC2)nc(NCCCc2cccnc2)c1Cl` [Compound 4-251, 5-Chloro-2-cyclopropyl-6-methoxycarbonyl-4-[3-(pyrid-3-yl)propylamino]-pyrimidine], the pest or weed control at 1000 g/ha is 50% in test [1]; 80% in the test on Solanum nigrum (SOLNI) [2]; 10% in test [3]; 100% in [4]; 40% in test [5]; 50% in the test on Setaria faberi (SETFA) [6]. In addition, the pest or weed control at 1000 g/ha is 20% in test [7]; 20% with Solanum nigrum (SOLNI) [8]; 0% in test [9]; 40% in test [10]; 0% in [11]; 0% in the test on Setaria faberi (SETFA) [12].

`COC(=O)c1nc(C2CC2)nc(NC(C)CCc2ccccc2)c1Cl` (stereo not drawn) [Compound 4-252, 5-Chloro-2-cyclopropyl-6-methoxycarbonyl-4-(3-phenyl-1-methyl-propylamino)-pyrimidine]: the pest or weed control at 1000 g/ha in [1] was 60%; in the test on Solanum nigrum (SOLNI) [2] it was 60%; in [3], 10%; in [4], 100%; in [5], 0%; with Setaria faberi (SETFA) [6], 30%. Moreover, the pest or weed control at 1000 g/ha in [7] turned out to be 0%; with Solanum nigrum (SOLNI) [8], 0%; in [9], 0%; in [10], 20%; in test [11], 0%; with Setaria faberi (SETFA) [12] it was 0%.

`COC(=O)c1nc(C2CC2)nc(NCCCCc2ccccc2)c1Cl` [Compound 4-253, 5-Chloro-2-cyclopropyl-6-methoxycarbonyl-4-(4-phenylbutyl-amino)pyrimidine]: the pest or weed control at 1000 g/ha is 70% in test [1]; 100% in the test with Solanum nigrum (SOLNI) [2]; 10% in [3]; 100% in test [4]; 40% in test [5]; 50% in the test on Setaria faberi (SETFA) [6]. Further, the pest or weed control at 1000 g/ha in test [7] stood at 100%; with Solanum nigrum (SOLNI) [8] it was 80%; in [9] it was 10%; in test [10] it was 50%; in [11], 20%; in the test on Setaria faberi (SETFA) [12] it was 30%.

Turning to `COC(=O)c1nc(C2CC2)nc(NCC(O)c2ccccc2)c1Cl` (stereo not drawn) [Compound 4-257, 5-Chloro-2-cyclopropyl-4-(2-hydroxy-2-phenyl-ethylamino)-6-methoxycarbonyl-pyrimidine], the pest or weed control at 1000 g/ha in test [1] was 100%; with Solanum nigrum (SOLNI) [2], 90%; in test [3], 60%; in test [4], 100%; in [5], 70%; in the test on Setaria faberi (SETFA) [6], 80%. Further, the pest or weed control at 1000 g/ha was 100% in test [7]; 90% in the test with Solanum nigrum (SOLNI) [8]; 40% in [9]; 100% in test [10]; 60% in test [11]; 80% in the test with Setaria faberi (SETFA) [12].

Regarding `COC(=O)c1nc(C2CC2)nc(NCC(O)c2cccc(O)c2)c1Cl` (stereo not drawn) [Compound 4-258, 5-Chloro-2-cyclopropyl-4-[2-hydroxy-2-(3-hydroxyphenyl)-ethylamino]-6-methoxycarbonyl-pyrimidine], the pest or weed control at 1000 g/ha in test [1] was 90%; with Solanum nigrum (SOLNI) [2], 80%; in test [3] it was 30%; in test [4], 100%; in test [5], 60%; in the test with Setaria faberi (SETFA) [6], 70%. The pest or weed control at 1000 g/ha is 100% in test [7]; 100% in the test on Solanum nigrum (SOLNI) [8]; 30% in test [9]; 100% in test [10]; 30% in test [11]; 40% in the test on Setaria faberi (SETFA) [12].

`COC(=O)c1nc(C2CC2)nc(NCC(O)c2ccc(O)cc2)c1Cl` (stereo not drawn) [Compound 4-259, 5-Chloro-2-cyclopropyl-4-[2-hydroxy-2-(4-hydroxyphenyl)-ethylamino]-6-methoxycarbonyl-pyrimidine]: the pest or weed control at 1000 g/ha amounted to 70% in [1]; 80% in the test on Solanum nigrum (SOLNI) [2]; 20% in test [3]; 100% in test [4]; 30% in test [5]; 80% with Setaria faberi (SETFA) [6]. The pest or weed control at 1000 g/ha in test [7] was determined as 100%; in the test with Solanum nigrum (SOLNI) [8], 90%; in [9], 10%; in [10] it was 100%; in test [11], 30%; with Setaria faberi (SETFA) [12] it was 30%.

In the case of `COC(=O)c1nc(C2CC2)nc(NCCNc2ccccc2)c1Cl` [Compound 4-260, 5-Chloro-2-cyclopropyl-6-methoxycarbonyl-4-[2-(phenylamino)-ethylamino)-pyrimidine], the pest or weed control at 1000 g/ha came to 100% in [1]; 80% in the test with Solanum nigrum (SOLNI) [2]; 20% in test [3]; 100% in [4]; 40% in test [5]; 60% in the test with Setaria faberi (SETFA) [6]. Also, the pest or weed control at 1000 g/ha in [7] was determined as 90%; in the test with Solanum nigrum (SOLNI) [8] it was 90%; in [9], 10%; in test [10], 100%; in test [11], 20%; in the test on Setaria faberi (SETFA) [12], 20%.

For `COC(=O)c1nc(C2CC2)nc(NCCSCc2ccccc2)c1Cl` [Compound 4-262, 5-Chloro-2-cyclopropyl-6-methoxycarbonyl-4-[2-(phenylmethyl-thio)ethylamino]-pyrimidine], the pest or weed control at 1000 g/ha stood at 60% in [1]; 60% with Solanum nigrum (SOLNI) [2]; 10% in test [3]; 80% in [4]; 10% in [5]; 30% with Setaria faberi (SETFA) [6]. In addition, the pest or weed control at 1000 g/ha in test [7] is 50%; with Solanum nigrum (SOLNI) [8] it was 10%; in test [9], 0%; in test [10], 40%; in test [11], 0%; with Setaria faberi (SETFA) [12], 0%.

Regarding `COC(=O)c1nc(C2CC2)nc(NCCSCc2c(Cl)cccc2Cl)c1Cl` [Compound 4-263, 5-Chloro-2-cyclopropyl-4-{2-[(2,6-dichloro-phenyl)methylthio]-ethylamino}-6-methoxycarbonyl-pyrimidine], the pest or weed control at 1000 g/ha in test [1] came to 50%; in the test with Solanum nigrum (SOLNI) [2] it was 60%; in test [3], 0%; in test [4], 90%; in test [5], 0%; in the test with Setaria faberi (SETFA) [6], 30%. Further, the pest or weed control at 1000 g/ha in [7] is 30%; with Solanum nigrum (SOLNI) [8], 10%; in [9], 0%; in [10] it was 30%; in test [11], 0%; in the test on Setaria faberi (SETFA) [12], 0%.

Source of the values: US20110086759A1, “CHEMICAL COMPOUNDS” (SYNGENTA CROP PROTECTION, INC., priority 2007, published 2011).
